Laboratory results as given in US20220095617A1, “PLANT GROWTH REGULATING AGENT” (IDEMITSU KOSAN CO.,LTD., priority 2019, published 2022).
Where “and” joins values, the source holds several entries; their conditions need not be identical. Identical values can stand only once. Like-named read-outs stand apart in the source and are kept apart here.

Columns and labels:
Type in all cases: in vivo
lettuce (Green Wave) [1] = assay: Example 3: High-temperature stress Petri dish test (lettuce), blending with β-carotene; conditions: 0.1 ppm
lettuce (Green Wave) [2] = assay: Example 4: High-temperature stress Petri dish test (lettuce), comparison with flavonoids; conditions: 0.1 ppm
Cabbage (Okina) seeds = assay: Example 6: High-temperature stress Petri dish test (cabbage seeds); conditions: for Germination rate, Increase rate / Root length, Increase rate: non-addition group = 100.0; for Root length, Average: after high-temperature treatment; for Germination rate, Average: seeds 52° C. hot water 25 minutes, 23° C. 4 days
Protocol: Cabbage (Okina, Takii & Co., Ltd.) seeds were soaked in hot water at 52° C. for 25 minutes to perform high-temperature treatment. […] A group similarly soaked in distilled water was provided as a non-addition group. After the soaking treatment, the seeds were dried in air, and then 20 seeds were sown on each of shallow Petri dishes in which qualitative filter paper was placed. To the filter paper in each Petri dish, 3 mL of distilled water was uniformly added dropwise. […] For each group, three measurement results were obtained for the germination rate (N=3), and 15 measurement results were obtained for the root length (N=15).

lettuce (Green Wave) [3] = assay: Example 9: High-temperature stress pot test (lettuce); conditions: for Fresh weight of above-ground part, Increase rate / Fresh weight of underground part, Increase rate: non-addition group = 100.0; for Fresh weight of above-ground part, Average / Fresh weight of underground part, Average: greenhouse 35° C., 20 days
Protocol: Immediately after the sowing, drenching treatment was carried out with 5 ml/well of a dilution of hesperidin prepared at a final concentration of 100 to 1000 ppm (using water as the solvent). A non-addition group was similarly subjected to drenching treatment using distilled water. High-temperature treatment was carried out by cultivation for 20 days in a greenhouse where the average daytime temperature was 35° C., and then the fresh weight of the above-ground part and the fresh weight of the underground part were evaluated. For each group, 15 to 20 measurement results were obtained (N=15 to 20).

Cabbage (Okina) = assay: Example 10: High-temperature stress pot test (cabbage); conditions: for Fresh weight of above-ground part, Increase rate / Fresh weight of underground part, Increase rate: non-addition group = 100.0; for Fresh weight of above-ground part, Average / Fresh weight of underground part, Average: greenhouse 35° C., 30 days
Protocol: Cabbage (Okina, Takii & Co., Ltd.) was sown on a cell tray filled with seedling culture soil (manufactured by Nihon Hiryo Co., Ltd.; “Naebijin N100”). […] Cultivation was carried out in a greenhouse (average daytime temperature, 35° C.) for 30 days, and then the fresh weight of the above-ground part and the fresh weight of the underground part were evaluated. For each group, 15 to 20 measurement results were obtained (N=15 to 20).

Dent corn (34V52) = assay: Example 14: Growth-promoting effect (dent corn); conditions: for Increase/decrease of above-ground part / Increase/decrease of underground part: non-addition group = 100%; for Weight of above-ground part FW / Weight of underground part FW: 25° C., 14 days
Protocol: Dent corn (34V52) was sown on pots filled with seedling culture soil (manufactured by Katakura & Co-op Agri Corporation; Kumiai seedling culture soil for gardening Genkikun No. 1) (soil volume, 130 ml). After confirmation of the germination, drenching treatment was carried out with 5 ml each of dilutions of hesperidin prepared at final concentrations of 1 to 10 ppm (using water as the solvent). […]

lettuce (Green Wave) [4] = assay: Example 17: Growth-promoting effect (lettuce, seed treatment); conditions: for Increase/decrease of above-ground part / Increase/decrease of underground part: non-addition group = 100%; for Weight of above-ground part FW / Weight of underground part FW: 25° C., 28 days
Protocol: For lettuce (Green Wave, Takii & Co., Ltd.), seed dressing was carried out by application, at 5% seed weight, of a dilution of hesperidin prepared at a final concentration of 1 to 100 ppm (using water as the solvent). The dressed lettuce seeds were sown on a cell tray filled with seedling culture soil (manufactured by Nihon Hiryo Co., Ltd.; “Naebijin N100”). […]

Sphaerotheca cucurbitae = assay: Example 20: Control effect against cucumber powdery mildew; conditions: 14 days
Protocol: […] cucumber (Hanjirofushinari, Takii & Co., Ltd.) in the two leaf stage, and foliar spraying of 15 ml each of dilutions of hesperidin prepared at final concentrations of 10 to 1000 ppm (using 0.01% Tween 20 solution as the solvent) was carried out. After air-drying, foliar spraying of cucumber powdery mildew spores (1×10^4 spores/ml, using 0.01% Tween 20 solution as the solvent) was carried out. After air-drying, cultivation was carried out in a greenhouse for 14 days, and then the control effect was evaluated.
Preventive value=100−(damage in the addition group/damage in the non-addition group)×100 (Equation 3)

Phythophthora infestans = conditions: 14 days
lettuce (Green Wave) [5] = assay: Example 22: pH stress Petri dish test (lettuce); conditions: for Root length, Increase rate: non-addition group = 100.0
lettuce (Green Wave) [6] = assay: Example 23: Metal stress Petri dish test (lettuce); conditions: Metal stress (AlCl3 100 μM), 1 ppm
[7] = High-temperature treatment (42° C., 1.5 hours)
[8] = seed treatment (dressing) 1 ppm
[9] = seed treatment (dressing) 10 ppm
[10] = seed treatment (dressing) 100 ppm

**Q.** With `COc1ccc([C@@H]2CC(=O)c3c(O)cc(O[C@@H]4O[C@H](CO[C@@H]5O[C@@H](C)[C@H](O)[C@@H](O)[C@H]5O)[C@@H](O)[C@H](O)[C@H]4O)cc3O2)cc1O` [Hesperidin] as the molecule, how does the Root length (lettuce (Green Wave) [1]; [7]) read?
**A.** 15.0 mm

**Q.** And the Root length (lettuce (Green Wave) [1]; Normal cultivation)?
**A.** 22.2 mm

**Q.** What about the Root length (lettuce (Green Wave) [2]; [7]) of the same molecule?
**A.** 16.5 mm

**Q.** What about the Root length (lettuce (Green Wave) [2]; Normal cultivation) of the same molecule?
**A.** 23.1 mm

**Q.** And the “Germination rate, Increase rate” value (Cabbage (Okina) seeds; 100 ppm)?
**A.** 127.1%

**Q.** What about the “Root length, Increase rate” value (Cabbage (Okina) seeds; 100 ppm) of the same molecule?
**A.** 189.7%

**Q.** And the “Germination rate, Increase rate” value (Cabbage (Okina) seeds; 1000 ppm)?
**A.** 150.3%

**Q.** What about the “Root length, Increase rate” value (Cabbage (Okina) seeds; 1000 ppm) of the same molecule?
**A.** 224.6%

**Q.** And the “Root length, Average” value (Cabbage (Okina) seeds; 100 ppm)?
**A.** 43.6 mm

**Q.** And the “Root length, Average” value (Cabbage (Okina) seeds; 1000 ppm)?
**A.** 51.6 mm

**Q.** And the “Germination rate, Average” value (Cabbage (Okina) seeds; then soaked at 100 ppm)?
**A.** 66.2%

**Q.** And the “Germination rate, Average” value (Cabbage (Okina) seeds; then soaked at 1000 ppm)?
**A.** 78.3%

**Q.** What about the “Fresh weight of above-ground part, Increase rate” value (lettuce (Green Wave) [3]; 100 ppm) of the same molecule?
**A.** 114.4%

**Q.** What about the “Fresh weight of underground part, Increase rate” value (lettuce (Green Wave) [3]; 100 ppm) of the same molecule?
**A.** 122.8%

**Q.** And the “Fresh weight of above-ground part, Increase rate” value (lettuce (Green Wave) [3]; 1000 ppm)?
**A.** 109.1%

**Q.** What about the “Fresh weight of underground part, Increase rate” value (lettuce (Green Wave) [3]; 1000 ppm) of the same molecule?
**A.** 93.9%

**Q.** And the “Fresh weight of above-ground part, Average” value (lettuce (Green Wave) [3]; drenching 100 ppm)?
**A.** 0.76 g

**Q.** And the “Fresh weight of underground part, Average” value (lettuce (Green Wave) [3]; drenching 100 ppm)?
**A.** 0.29 g

**Q.** What about the “Fresh weight of above-ground part, Average” value (lettuce (Green Wave) [3]; drenching 1000 ppm) of the same molecule?
**A.** 0.72 g

**Q.** What about the “Fresh weight of underground part, Average” value (lettuce (Green Wave) [3]; drenching 1000 ppm) of the same molecule?
**A.** 0.22 g

**Q.** What about the “Fresh weight of above-ground part, Increase rate” value (Cabbage (Okina); 100 ppm) of the same molecule?
**A.** 118.0%

**Q.** And the “Fresh weight of underground part, Increase rate” value (Cabbage (Okina); 100 ppm)?
**A.** 130.6%

**Q.** And the “Fresh weight of above-ground part, Increase rate” value (Cabbage (Okina); 1000 ppm)?
**A.** 97.1%

**Q.** And the “Fresh weight of underground part, Increase rate” value (Cabbage (Okina); 1000 ppm)?
**A.** 103.2%

**Q.** And the “Fresh weight of above-ground part, Average” value (Cabbage (Okina); drenching 100 ppm)?
**A.** 0.87 g

**Q.** And the “Fresh weight of underground part, Average” value (Cabbage (Okina); drenching 100 ppm)?
**A.** 0.32 g

**Q.** What about the “Fresh weight of above-ground part, Average” value (Cabbage (Okina); drenching 1000 ppm) of the same molecule?
**A.** 0.72 g

**Q.** What about the “Fresh weight of underground part, Average” value (Cabbage (Okina); drenching 1000 ppm) of the same molecule?
**A.** 0.25 g

**Q.** What about the “Increase/decrease of above-ground part” value (Dent corn (34V52); 1 ppm) of the same molecule?
**A.** 114%

**Q.** And the “Increase/decrease of underground part” value (Dent corn (34V52); 1 ppm)?
**A.** 126%

**Q.** What about the “Increase/decrease of above-ground part” value (Dent corn (34V52); 3 ppm) of the same molecule?
**A.** 111%

**Q.** And the “Increase/decrease of underground part” value (Dent corn (34V52); 3 ppm)?
**A.** 123%

**Q.** What about the “Increase/decrease of above-ground part” value (Dent corn (34V52); 10 ppm) of the same molecule?
**A.** 104%

**Q.** And the “Increase/decrease of underground part” value (Dent corn (34V52); 10 ppm)?
**A.** 103%

**Q.** What about the “Weight of above-ground part FW” value (Dent corn (34V52); drenching 1 ppm) of the same molecule?
**A.** 6.5 mg/individual

**Q.** And the “Weight of underground part FW” value (Dent corn (34V52); drenching 1 ppm)?
**A.** 5.1 mg/individual

**Q.** What about the “Weight of above-ground part FW” value (Dent corn (34V52); drenching 3 ppm) of the same molecule?
**A.** 6.3 mg/individual

**Q.** What about the “Weight of underground part FW” value (Dent corn (34V52); drenching 3 ppm) of the same molecule?
**A.** 5.0 mg/individual

**Q.** And the “Weight of above-ground part FW” value (Dent corn (34V52); drenching 10 ppm)?
**A.** 5.9 mg/individual

**Q.** And the “Weight of underground part FW” value (Dent corn (34V52); drenching 10 ppm)?
**A.** 4.2 mg/individual

**Q.** And the “Increase/decrease of above-ground part” value (lettuce (Green Wave) [4]; 1 ppm)?
**A.** 109%

**Q.** And the “Increase/decrease of underground part” value (lettuce (Green Wave) [4]; 1 ppm)?
**A.** 133%

**Q.** And the “Increase/decrease of above-ground part” value (lettuce (Green Wave) [4]; 10 ppm)?
**A.** 113%

**Q.** What about the “Increase/decrease of underground part” value (lettuce (Green Wave) [4]; 10 ppm) of the same molecule?
**A.** 142%

**Q.** And the “Increase/decrease of above-ground part” value (lettuce (Green Wave) [4]; 100 ppm)?
**A.** 149%

**Q.** What about the “Increase/decrease of underground part” value (lettuce (Green Wave) [4]; 100 ppm) of the same molecule?
**A.** 126%

**Q.** What about the “Weight of above-ground part FW” value (lettuce (Green Wave) [4]; [8]) of the same molecule?
**A.** 27.4 mg/individual

**Q.** What about the “Weight of underground part FW” value (lettuce (Green Wave) [4]; [8]) of the same molecule?
**A.** 7.6 mg/individual

**Q.** What about the “Weight of above-ground part FW” value (lettuce (Green Wave) [4]; [9]) of the same molecule?
**A.** 28.3 mg/individual

**Q.** And the “Weight of underground part FW” value (lettuce (Green Wave) [4]; [9])?
**A.** 8.1 mg/individual

**Q.** What about the “Weight of above-ground part FW” value (lettuce (Green Wave) [4]; [10]) of the same molecule?
**A.** 37.4 mg/individual

**Q.** What about the “Weight of underground part FW” value (lettuce (Green Wave) [4]; [10]) of the same molecule?
**A.** 7.2 mg/individual

**Q.** And the Preventive value (Sphaerotheca cucurbitae; 10 ppm foliar spraying on cucumber)?
**A.** 5.0

**Q.** And the Preventive value (Sphaerotheca cucurbitae; 100 ppm foliar spraying on cucumber)?
**A.** 50.0

**Q.** And the Preventive value (Sphaerotheca cucurbitae; 1,000 ppm foliar spraying on cucumber)?
**A.** 68

**Q.** And the Preventive value (Phythophthora infestans; 10 ppm foliar spraying on tomato (Regina))?
**A.** 37.4

**Q.** What about the Preventive value (Phythophthora infestans; 30 ppm foliar spraying on tomato (Regina)) of the same molecule?
**A.** 86.0

**Q.** And the Preventive value (Phythophthora infestans; 100 ppm foliar spraying on tomato (Regina))?
**A.** 92 and 92.1

**Q.** What about the “Root length, Average” value (lettuce (Green Wave) [5]; Acid stress (pH 4), 0.1 ppm) of the same molecule?
**A.** 17.69 mm

**Q.** What about the “Root length, Increase rate” value (lettuce (Green Wave) [5]; Acid stress (pH 4), 0.1 ppm) of the same molecule?
**A.** 121.9%

**Q.** And the “Root length, Average” value (lettuce (Green Wave) [5]; Acid stress (pH 4), 1 ppm)?
**A.** 18.03 mm

**Q.** What about the “Root length, Increase rate” value (lettuce (Green Wave) [5]; Acid stress (pH 4), 1 ppm) of the same molecule?
**A.** 124.3%

**Q.** And the “Root length, Average” value (lettuce (Green Wave) [5]; Alkali stress (pH 9), 0.1 ppm)?
**A.** 17.55 mm

**Q.** What about the “Root length, Increase rate” value (lettuce (Green Wave) [5]; Alkali stress (pH 9), 0.1 ppm) of the same molecule?
**A.** 114.1%

**Q.** And the “Root length, Average” value (lettuce (Green Wave) [5]; Alkali stress (pH 9), 1 ppm)?
**A.** 17.40 mm

**Q.** And the “Root length, Increase rate” value (lettuce (Green Wave) [5]; Alkali stress (pH 9), 1 ppm)?
**A.** 113.1%

**Q.** And the “Root length, Average” value (lettuce (Green Wave) [6])?
**A.** 22.87 mm

**Q.** And the “Root length, Increase rate” value (lettuce (Green Wave) [6]; non-addition group = 100.0)?
**A.** 137.6%
